Consider eight compounds from patent US5010074A, “Novel benzazepine derivatives” (Novo Nordisk A/S, priority 1988, dated 1991).

Like-named read-outs stand apart in the source and are kept apart here.

Series [1] can be described thus: antagonism of methylphenidate-induced stereotyped gnawing in mice. The settings on record: mouse, in vivo. The text has this:
(§1) Following the method of Pedersen, V. and Christensen, A.V.: "Antagonism of methylphenidate-induced stereotyped gnawing in mice", Acta Pharmacol. et Toxicol. 31: 488-496, 1972, antagonism of dopamine-dependent, methyl-phenidate-induced gnawing behaviour of mice, was used to assess the effects of the present D-1 antagonists. Further, the ratio of ED50 values obtained using i.v. administration and oral administration, respectively, was taken as an index of the bioavailability of the test drugs.

In series [2] the test system is methyl-phenidate-induced gnawing behaviour of mice. The series is described as above. The settings on record: Mus musculus.
Text: as §1

In the next series the target is T1, dopamine D1 receptor (Rattus norvegicus, UniProt P18901).
T1 construct: homogenates from rat striatum; from tissue; host or cells: rat striatum homogenate
T1 sequence (P18901 whole entry): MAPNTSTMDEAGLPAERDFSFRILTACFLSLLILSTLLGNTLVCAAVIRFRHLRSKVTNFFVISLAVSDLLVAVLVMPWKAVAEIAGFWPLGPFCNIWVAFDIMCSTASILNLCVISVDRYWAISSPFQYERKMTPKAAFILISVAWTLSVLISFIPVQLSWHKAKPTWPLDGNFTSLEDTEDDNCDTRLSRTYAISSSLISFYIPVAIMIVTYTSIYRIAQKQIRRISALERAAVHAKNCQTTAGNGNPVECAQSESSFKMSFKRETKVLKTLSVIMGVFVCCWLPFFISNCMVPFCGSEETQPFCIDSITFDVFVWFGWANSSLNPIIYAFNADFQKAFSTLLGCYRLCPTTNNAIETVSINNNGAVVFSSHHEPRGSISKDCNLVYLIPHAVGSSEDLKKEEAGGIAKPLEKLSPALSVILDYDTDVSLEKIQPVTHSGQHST
Description: binding to dopamine D1 receptor in homogenates from rat striatum. The text has this:
Ki is the affinity of tested compounds for the dopamine D1 receptor.

For series [3] the following is noted: in words; Life Sci. 34 (1984) 1529; cited from earlier work.
For another series, the system named is D1 dopamine. The settings on record: in words; Eur.J.Pharmacol. 91 (1983) 153; cited from earlier work.
Another series in a line: in vivo. The arrangement: species or system mongrel dogs. The settings on record: dog, po. As for the experimental part: As already mentioned, the benzazepines of the general formula given in Table II with X representing halogen have a low oral bioavailability. […] Some test results are stated in the following.
The benzazepines are administered orally to dogs and subsequently samples of their blood plasma are analysed for the compound by a specific HPLC-method. The area under the curve showing the oral plasma concentration versus time is calculated. This area is designated […].
The absolute oral bioavailability, F, is calculated as the ratio between the area representing the oral dose and the area for the intravenous dose according to the formula [formula]

[4] abbreviates: Table I, rat striatum homogenates, (+) enantiomere or racemic mixtures, read-out: Ki Dopamine D1 receptor.
The mark [5] stands for this setting: Table II, unit inferred, read-out: Ki.

On to `CN1CCc2cc([N+](=O)[O-])c(O)cc2[C@@H](c2ccccc2)C1` [Example 4, (R)-7-hydroxy-3-methyl-8-nitro-5-phenyl-2,3,4,5-tetrahydro-1H-3-benzazepine], for which the selectivity ratio in series [1] is 2.2. In addition, the ED50 worked out at 5.4 mg/kg in series [2] (iv, read-out: ED50 i.v.) and 11.9 mg/kg in series [2] (po, read-out: ED50 p.o.). Also, the Ki on dopamine D1 receptor (setting [4]) and at dopamine D1 receptor (setting [5]) was 13 nM throughout.

In the case of `CN1CCc2cc([N+](=O)[O-])c(O)cc2C(c2ccccc2F)C1` (stereo not shown) [Example 1, 5-(2-fluorophenyl)-7-hydroxy-3-methyl-8-nitro-2,3,4,5-tetrahydro-1H-3-benzazepine], at dopamine D1 receptor (setting [4]), the inhibition constant Ki was 42 nM.

Consider `CN1CCc2cc(Cl)c(O)cc2[C@@H](c2ccccc2)C1` [SCH 23390, (R)-8-chloro-7-hydroxy-2,3,4,5-tetrahydro-3-methyl-5-phenyl-1H-3-benzazepine], for which the ED50 in series [2] (iv, read-out: ED50 i.v.) is 0.017 mg/kg. In addition, the 50% effective dose (ED50) in series [2] (po, read-out: ED50 p.o.) turned out to be 6.5 mg/kg. In series [3], the “bioavailability after oral administration” value was “poor bioavailability after oral administration” and the duration of action result was “short duration of action”. In addition, the D1 dopamine antagonism result in the series with D1 dopamine was “selective D1 dopamine antagonist”.

Turning to `CN1CCc2cc([N+](=O)[O-])c(O)cc2C(c2cccc3c2OCC3)C1` (single isomer, unassigned; (+)) [Example 5, (+)-5-(2,3-dihydrobenzofuran-7-yl)-7-hydroxy-3-methyl-8-nitro-2,3,4,5-tetrahydro-1H-3-benzazepine], the selectivity ratio in series [1] is 17.3. Besides, the ED50 in series [2] (iv, read-out: ED50 i.v.) is 0.11 mg/kg; in series [2] (po, read-out: ED50 p.o.) it was 1.9 mg/kg. For the same compound, in “in vivo”, the bioavailability turned out to be 65%. Also, the inhibitory constant (Ki) on dopamine D1 receptor (setting [4]) was 11 nM; at dopamine D1 receptor (setting [5]), 4.6 nM.

With `CN1CCc2cc(Cl)c(O)cc2C(c2cccc3c2OCC3)C1` (stereo not shown) [8-chloro-7-hydroxy-3-methyl-5-(2,3-dihydrobenzofuran-7-yl)-2,3,4,5-tetrahydro-1H-3-benzazepine, reference compound], the selectivity ratio in series [1] is 75. Also, the ED50 in series [2] (iv, read-out: ED50 i.v.) was 0.06 mg/kg; in series [2] (po, read-out: ED50 p.o.), 4.5 mg/kg. The compound further gave a bioavailability in “in vivo” of 5.5%. Moreover, the Ki at dopamine D1 receptor (setting [5]) came out at 0.2 nM.

With `Cc1ccccc1C1CN(C)CCc2cc([N+](=O)[O-])c(O)cc21` (stereo not shown) [Example 3, 7-hydroxy-3-methyl-8-nitro-5(2-methyl-phenyl)-2,3,4 5-tetrahydro-1H-3-benzazepine], at dopamine D1 receptor (setting [4]), the Ki amounted to 28 nM.

As for `CN1CCc2cc([N+](=O)[O-])c(O)cc2[C@@H]2c3ccccc3CC[C@H]21` (relative stereo) [Example 7, trans-[6,7,7a,8,9,13b]-hexahydro-2-hydroxy-7-methyl-3-nitro-5H-benzo[d]naphto[2,1-b]azepine], at dopamine D1 receptor (setting [4]), the inhibition constant (Ki) is 169 nM.

In the case of `CN1CCc2cc([N+](=O)[O-])c(O)cc2C(c2ccc3c(c2)CCC3)C1` (stereo not shown) [Example 6, 7-hydroxy-5-(5-indanyl)-3-methyl-8-nitro-2,3,4,5-tetrahydro-1H-3-benzazepine], the Ki at dopamine D1 receptor (setting [4]) was 88 nM.

What is called ED50 is the dose that gives a 50% effect, or the effect in half of the subjects. Usually Ki stands for the dissociation constant of the complex between target and ligand, obtained from inhibition or displacement. Broadly, the bioavailability is dose-corrected exposure relative to a reference, in per cent.
